The experiment has as its target factor B (Homo sapiens, UniProt P00751). Put plainly: assay of Biological Example 2.7. More on the design: made in house; host or cells: drosophila cells. The experiment is classed as binding. The conditions noted are these: assay of Biological Example 2.7 (Table 2).

factor B, sequence (P00751 26-764): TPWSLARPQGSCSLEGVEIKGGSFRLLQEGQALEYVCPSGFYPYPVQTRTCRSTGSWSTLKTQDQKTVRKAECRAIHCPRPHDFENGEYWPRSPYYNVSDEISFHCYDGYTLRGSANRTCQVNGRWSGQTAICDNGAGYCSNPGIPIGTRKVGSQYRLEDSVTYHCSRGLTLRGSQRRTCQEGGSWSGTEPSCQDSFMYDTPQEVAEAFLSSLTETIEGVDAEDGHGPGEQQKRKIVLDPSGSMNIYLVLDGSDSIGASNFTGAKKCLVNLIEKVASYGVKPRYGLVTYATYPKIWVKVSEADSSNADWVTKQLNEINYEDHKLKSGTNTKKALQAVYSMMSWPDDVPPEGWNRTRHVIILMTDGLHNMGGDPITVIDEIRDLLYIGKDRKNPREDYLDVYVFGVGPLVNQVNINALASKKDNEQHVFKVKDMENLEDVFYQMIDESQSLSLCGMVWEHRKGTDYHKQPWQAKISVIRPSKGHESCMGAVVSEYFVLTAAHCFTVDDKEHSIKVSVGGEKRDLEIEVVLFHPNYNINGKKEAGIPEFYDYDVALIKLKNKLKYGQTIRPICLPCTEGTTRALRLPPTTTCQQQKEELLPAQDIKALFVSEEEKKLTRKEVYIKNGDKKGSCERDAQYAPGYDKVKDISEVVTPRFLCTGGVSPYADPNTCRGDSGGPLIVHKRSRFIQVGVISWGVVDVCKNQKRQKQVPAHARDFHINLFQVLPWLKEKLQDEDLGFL

On to `COC(=O)CC(C)(c1nc2cc(C#N)ccc2[nH]1)c1c(OC)cc(C)c2c1CCN2` (racemic) [Example 156-K, (±)-Methyl 3-(5-cyano-1H-benzo[d]imidazol-2-yl)-3-(5-methoxy-7-methylindolin-4-yl)butanoate], for which the 50% inhibitory concentration (IC50) (in general, the midpoint of a concentration-inhibition curve) is 130 nM.

In the case of `COc1cc(C)c2[nH]ccc2c1C(CCCC(=O)O)c1nc2cc(C#N)ccc2[nH]1` (racemic) [Example 157, (±)-5-(5-Cyano-1H-benzo[d]imidazol-2-yl)-5-(5-methoxy-7-methyl-1H-indol-4-yl)pentanoic acid], the IC50 stood at 39 nM.

The molecule `COc1cc(C)c2[nH]ccc2c1C(c1nc2cc(C#N)ccc2o1)C(C)(C)C(=O)O` (racemic) [Example 158, (±)-3-(5-Cyanobenzo[d]oxazol-2-yl)-3-(5-methoxy-7-methyl-1H-indol-4-yl)-2,2-dimethylpropanoic acid] came in with an IC50 of 21000 nM.

In the case of `COc1cc(C)c2[nH]ccc2c1C(N)(c1nc2cc(C#N)ccc2o1)C(F)(F)F` (single isomer, unassigned) [137-B b) (tr = 2.7 min), (+) or (−)-2-(1-amino-2,2,2-trifluoro-1-(5-methoxy-7-methyl-1H-indol-4-yl)ethyl)benzo[d]oxazole-5-carbonitrile], the IC50 was found to be 20 nM.

In turn, `COc1cc(C)c2[nH]ccc2c1C(N)(c1nc2cc(C#N)ccc2o1)C(F)(F)F` (single isomer, unassigned) [137-B b) (tr = 4.6 min), (−) or (+)-2-(1-amino-2,2,2-trifluoro-1-(5-methoxy-7-methyl-1H-indol-4-yl)ethyl)benzo[d]oxazole-5-carbonitrile] registered an IC50 of 3210 nM.

On to `CCc1cc(C)c2[nH]ccc2c1C(C)(N)c1nc2cc(C#N)ccc2o1` (single isomer, unassigned) [137-F b) (tr = 3.3 min), (+) or (−)-2-(1-amino-1-(5-ethyl-7-methyl-1H-indol-4-yl)ethyl)benzo[d]oxazole-5-carbonitrile], for which 170 nM corresponded to half-maximal inhibition (IC50). Against the preceding molecule, the IC50 is about 19-fold lower.

`CCc1cc(C)c2[nH]ccc2c1C(C)(N)c1nc2cc(C#N)ccc2o1` (single isomer, unassigned) [137-F b) (tr = 4.9 min), (−) or (+)-2-(1-amino-1-(5-ethyl-7-methyl-1H-indol-4-yl)ethyl)benzo[d]oxazole-5-carbonitrile] displayed an IC50 of 10 nM.

Take `CNC(C)(c1nc2cc(C#N)ccc2o1)c1c(OC)cc(C)c2[nH]ccc12` (single isomer, unassigned) [137-M b) (tr = 2.9 min), (+) or (−)-2-(1-(5-methoxy-7-methyl-1H-indol-4-yl)-1-(methylamino)ethyl)benzo[d]oxazole-5-carbonitrile]: it took 370 nM to reach half-maximal inhibition (IC50).

In the case of `CCOC(=O)COC(c1nc2cc(C#N)ccc2[nH]1)(c1c(OC)cc(C)c2[nH]ccc12)C(F)(F)F` (single isomer, unassigned) [Example 35-D, (+) or (−)-Ethyl 2-(1-(5-cyano-1H-benzo[d]imidazol-2-yl)-2,2,2-trifluoro-1-(5-methoxy-7-methyl-1H-indol-4-yl)ethoxy)acetate], half-maximal inhibition (IC50) required 24 nM.

On to `Cc1cc(O)c(C(N)(c2nc3cc(C#N)ccc3[nH]2)C(F)(F)F)c2cc[nH]c12` (single isomer, unassigned) [Example 141, (+) or (−)-2-(1-amino-2,2,2-trifluoro-1-(5-hydroxy-7-methyl-1H-indol-4-yl)ethyl)-1H-benzo[d]imidazole-5-carbonitrile], for which the IC50 was determined as 150 nM.

For `Cc1cc(Br)c(C(C)(N)c2nc3cc(C#N)ccc3[nH]2)c2cc[nH]c12` (single isomer, unassigned; (+)) [137-A b) (+), (+)-2-(1-amino-1-(5-bromo-7-methyl-1H-indol-4-yl)ethyl)-1H-benzo[d]imidazole-5-carbonitrile], the midpoint of inhibition, the IC50, lay at 120 nM.

Consider `[2H]C([2H])([2H])OC(C)(c1nc2cc(C#N)ccc2[nH]1)c1c(OC)cc(C)c2[nH]ccc12` (single isomer, unassigned; (+)) [137-I b) (+), (+)-2-(1-(^2H3)methoxy-1-(5-methoxy-7-methyl-1H-indol-4-yl)ethyl)-1H-benzo[d]imidazole-5-carbonitrile], for which 110 nM corresponded to half-maximal inhibition (IC50).

As to `[2H]C([2H])([2H])OC(c1nc2cc(C#N)ccc2[nH]1)(c1c(OC)cc(C)c2[nH]ccc12)C(F)(F)F` (single isomer, unassigned; (+)) [137-J b) (+), (+)-2-(2,2,2-trifluoro-1-(^2H3)-methoxy-1-(5-methoxy-7-methyl-1H-indol-4-yl)ethyl)-1H-benzo[d]imidazole-5-carbonitrile], the IC50 stood at 1300 nM.

`COc1cc(C)c2[nH]ccc2c1C(C)(OC)c1nc2cc(C#N)ccc2o1` (single isomer, unassigned; (+)) [137-K b) (+), (+)-2-(1-methoxy-1-(5-methoxy-7-methyl-1H-indol-4-yl)ethyl)benzo[d]oxazole-5-carbonitrile] showed a half-maximal inhibitory concentration (IC50) of 820 nM.

For the molecule `COC(C)(c1nc2cc(C#N)ccc2o1)c1c(C2CC2)cc(C)c2[nH]ccc12` (single isomer, unassigned; (+)) [137-L b) (+), (+)-2-(1-(5-cyclopropyl-7-methyl-1H-indol-4-yl)-1-methoxyethyl)benzo[d]oxazole-5-carbonitrile], half-maximal inhibition (IC50) was put at 720 nM. The IC50 values of the last two molecules are within 1.5-fold of each other.

In turn, `COc1cc(C)c2[nH]ccc2c1C(C)(O)c1nc2cc(C#N)ccc2o1` (single isomer, unassigned; (+)) [137-N b) (+), (+)-2-(1-hydroxy-1-(5-methoxy-7-methyl-1H-indol-4-yl)ethyl)benzo[d]oxazole-5-carbonitrile] had a 50% inhibitory concentration (IC50) of 40 nM. This IC50 lies about 18-fold lower than the previous one.

In turn, `COc1cc(C)c2[nH]cc3c2c1C(c1nc2cc(C#N)ccc2[nH]1)(C(F)(F)F)NC3` (single isomer, unassigned; (+)) [Example 36-F, (+)-2-(6-methoxy-8-methyl-5-(trifluoromethyl)-1,3,4,5-tetrahydropyrrolo[4,3,2-de]isoquinolin-5-yl)-1H-benzo[d]imidazole-5-carbonitrile] yielded a 50% inhibitory concentration (IC50) of 12 nM. This IC50 is about 3.3-fold lower than that of the molecule before.

For the molecule `COc1cc(C)c2[nH]ccc2c1C(CC(=O)O)c1nc2cc(C#N)ccc2o1` (single isomer, unassigned; (+)) [Example 148-D, (+)-3-(5-cyanobenzo[d]oxazol-2-yl)-3-(5-methoxy-7-methyl-1H-indol-4-yl)propanoic acid], the IC50 was found to be 340 nM.

On to `COc1cc(C)c2[nH]ccc2c1C(CCC(=O)O)c1nc2cc(C#N)ccc2o1` (single isomer, unassigned; (+)) [Example 149-C, (+)-4-(5-cyanobenzo[d]oxazol-2-yl)-4-(5-methoxy-7-methyl-1H-indol-4-yl)butanoic acid], for which the IC50 turned out to be 160 nM.

As to `Cc1cc(Br)c(C(C)(N)c2nc3cc(C#N)ccc3[nH]2)c2cc[nH]c12` (single isomer, unassigned; (-)) [137-A b) (−), (−)-2-(1-amino-1-(5-bromo-7-methyl-1H-indol-4-yl)ethyl)-1H-benzo[d]imidazole-5-carbonitrile], the half-maximal inhibitory concentration (IC50) stood at 20 nM.

The molecule `[2H]C([2H])([2H])OC(C)(c1nc2cc(C#N)ccc2[nH]1)c1c(OC)cc(C)c2[nH]ccc12` (single isomer, unassigned; (-)) [137-I b) (−), (−)-2-(1-(^2H3)methoxy-1-(5-methoxy-7-methyl-1H-indol-4-yl)ethyl)-1H-benzo[d]imidazole-5-carbonitrile] showed a half-maximal inhibitory concentration (IC50) of 10 nM.

These data come from US9056874B2, “Complement pathway modulators and uses thereof” (NOVARTIS AG, priority 2012, dated 2015).
